Data on 6 compounds can be found in US7960373B2, “2-alkoxy-3,4,5-trihydroxyalkylamide-benzothiazepines preparation thereof, compositions containing them and use thereof” (Sanofi-Aventis, priority 2006, dated 2011).

Broadly, the IC50 is the midpoint of a concentration-inhibition curve. Low values mean inhibition by little substance, high ones a need for much substance. Broadly, the Papp is a coefficient for how fast a substance crosses the barrier. High values mean ready permeation, low ones poor permeation.

In data set [1] the test system is HCT116 cells. Nature of the data set: inhibition of cell proliferation of HCT116 cells (14C-thymidine incorporation). Format: cell-based. The following applies: Homo sapiens, HCT-116, HCT116, 96 hours. On the procedure: The antiproliferative activity of the products of the examples of Table 1 was determined by measuring the inhibition of cell proliferation of HCT116 cells. The cells are inoculated in a cell culture medium at a concentration of 10 000 cells per well, in 0.17 mL of medium, and 20 μL of test product, at various concentrations, and 10 μL of thymidine [methyl-14C] (100 μCi/ml—specific activity 47.90 mCi/mmol; NEN Technologies reference NEC568 batch 3550-001) are added, and the cells are then incubated at 37° C. and 5% CO2.
Medium used for the HCT116 cell culturing: DMEM medium 2 mM L-glutamine, 200 IU/ml penicillin, 200 μg/mL streptomycin and 10% (V/V) foetal calf serum (Life Technologies).
After 96 hours, the incorporation of ^14C-thymidine is counted in a 1450 Microbeta Wallac Trilux liquid scintillation counter. The results R are expressed in cpm (counts per minute) and converted to a percentage of growth inhibition GI % by first subtracting the average number of cpm for the wells without B cells and then dividing the number of cpm for the wells of the untreated cells C comprising 20 μL of product dilution medium containing 1% ethanol. (GI %=(R−B)×100/C %).
The IC50 values are calculated by means of equation 205 of the XLFit software (IDBS company, UK) via non-linear regression analysis using the Marquardt algorithm (Donald W. Marquardt, J. Soc. Industry. Appl., vol. 11, No. 2, June, 1963).
Background: Dividing cells build labelled thymidine or BrdU into new DNA.

Data set [2] in a line: total metabolic stability (% metabolization). Format: in vitro ADME. The following applies: in mice. An excerpt:
This compound has better total metabolic stability (11% metabolization in mice) than the product of Example 20 (99%) described in patent application WO 2006/056 696.

Data set [3] can be described thus: Caco2-TC7 permeability (Papp single point). The data set is classed as in vitro ADME. The following applies: human, Caco-2. (Passage across Caco-2 layers is used to estimate intestinal permeability.)

Structures are written as SMILES.

The compound `CO[C@@H](C(=O)N[C@H]1C[S@@+]([O-])c2ccccc2N(Cc2cc(F)cc(F)c2)C1=O)[C@H](O)[C@@H](O)[C@H](O)/C=C/C(C)(C)C` [Example 1] yielded an IC50 in data set [1] of 9 nM. In data set [1], `CO[C@@H](C(=O)N[C@H]1C[S@+]([O-])c2ccccc2N(Cc2cc(F)cc(F)c2)C1=O)[C@H](O)[C@@H](O)[C@H](O)/C=C/C(C)(C)C` [Example 2] showed an IC50 of 20 nM. The same measure, in the same setting: next, `CO[C@@H](C(=O)N[C@H]1CSc2ccccc2N(Cc2ccccc2)C1=O)[C@H](O)[C@@H](O)[C@H](O)/C=C/C(C)(C)C` [Example 3, N-[(3R)-5-benzyl-4-oxo-2,3,4,5-tetrahydro-1,5-benzothiazepin-3-yl]-(6E)-(2R,3R,4S,5R)-3,4,5-trihydroxy-2-methoxy-8,8-dimethyl non-6-enamide]: 10 nM; `CO[C@@H](C(=O)N[C@H]1CSc2ccccc2N(C)C1=O)[C@H](O)[C@@H](O)[C@H](O)/C=C/C(C)(C)C` [Example 4, N-[(3R)-5-methyl-4-oxo-2,3,4,5-tetrahydro-1,5-benzothiazepin-3-yl]-(6E)-(2R,3R,4S,5R)-3,4,5-trihydroxy-2-methoxy-8,8-dimethylnon-6-enamide]: 19 nM. Turning to `CO[C@@H](C(=O)N[C@H]1CSc2c(Cl)cc(C(F)(F)F)cc2NC1=O)[C@H](O)[C@@H](O)[C@H](O)/C=C/C(C)(C)C` [Example 5, N-((3R)-9-chloro-4-oxo-7-trifluoromethyl-2,3,4,5-tetrahydro-1,5-benzothiazepin-3-yl)-(6E)-(2R,3R,4S,5R)-3,4,5-trihydroxy-2-methoxy-8,8-dimethylnon-6-enamide], it took 14 nM to reach half-maximal inhibition in data set [1] (IC50). In addition, the “total metabolic stability, % metabolization” value in data set [2] is reported as 11%. In addition, the Papp in data set [3] was 2.3 ×10⁻⁶ cm/s.

Turning to `CO[C@@H](C(=O)N[C@H]1CSc2ccccc2N(C)C1=O)[C@H](O)[C@@H](O)[C@H](O)/C=C/C1CCCC1` [Example 9, (2R,3R,4S,5R,6E)-7-cyclopentyl-3,4,5-trihydroxy-2-methoxy-N-[(3R)-5-methyl-4-oxo-2,3,4,5-tetrahydro-1,5-benzothiazepin-3-yl]hept-6-enamide], in data set [1], the IC50 amounted to 7 nM.
